Experiments:
[1] = acute toxicity trial in mice; type: in vivo; conditions: 26 mice; doses up to about 3000 mg per kg per day
Experimental: In an acute toxicity trial, 1,8-diacetoxy-3-carboxyanthraquinone (diacetylrhein) was administered to 26 mice in doses of up to about 3000 mg per kg per day.

[2] = treatment of patients with rheumatoid arthritis of the hands; type: in vivo, human; conditions: three cases; 50 mg twice daily for between five and ten days
Experimental: In three cases, patients with rheumatoid arthritis of the hands, having swollen fingers and painful joints, were treated with 50 mg of diacetylrhein, twice daily for between five and ten days.

[3] = human ingestion of diacetylrhein for 15 months, side effects; type: in vivo; conditions: about 100 mg per day
Experimental: (§1) A human patient having severe osteoarthritis (established by X-ray, CSF and rheumatoid factor assessments) across the lower back was treated with diacetylrhein. The patient had greatly restricted torsal rotation and a notable pain in their back and legs after remaining seated for 30 to 60 minutes. The patient was treated by ingesting two daily doses of 50 mg of diacetylrhein.

[4] = treatment of osteoarthritis patients; type: in vivo, human; conditions: one patient, severe osteoarthritis across lower back
Experimental: as §1

[5] = clinical trials in MS and ALS patients; type: in vivo, human; conditions: patients suffering from MS and ALS
Source text: Clinical trials are being carried out in which patients suffering from MS and ALS are being treated with diacetylrhein.

[6] = clinical tests on arthritis patients; type: in vivo, human
Source text: Clinical tests have been carried out on arthritis patients with extremely encouraging results.

[7] = side effects in all clinical trials to date; type: in vivo, human
Source text: In all clinical trials carried out to date with diacetylrhein side effects have been unsignificant.

treatment of MS patients = type: in vivo; conditions: four human patients; two daily doses of 50 mg, ingested
Experimental: Four human patients suffering from MS were treated with diacetylrhein. They were treated by ingesting two daily doses of 50 mg diacetylrhein.

[8] = treatment of an ALS patient; type: in vivo, human; conditions: one patient, fairly advanced stage; six months; daily doses increasing up to 150 mg
Experimental: A human patient suffering from ALS in a fairly advanced stage was treated with diacetylrhein over a period of six months. The diacetylrhein was ingested in daily doses increasing up to 150 mg daily.

[9] = adhesion to intestinal mucosa / absorption; type: in vivo; conditions: rhein found to adhere, should thus be relatively poorly absorbed
[10] = system: NADH-dehydrogenase complex; conditions: interferes with redox function of NADH-dehydrogenase complex, thus mitochondrial oxidations; cited from earlier work
[11] = cited from earlier work
[12] = two daily doses of 50 mg, ingested

| Compound | deaths [1] | finger thickness (swelling) [2] | pain in the joints [2] | untoward effects [3] | condition with continued treatment ([4]; continued treatment) | onset of effect [4, 12] | pain, torsal rotation and early morning stiffness [4, 12] | results of clinical trials [5] | failure to respond to treatment ([6]; arthritis patients) | need for Charnley Hip Operation ([6]; patients with arthritis of the hip) | side effects ([7]; all clinical trials carried out to date) | only side effect encountered ([7]; all clinical trials to date, eliminated by reducing the dosage) | pain and limb unsteadiness (treatment of MS patients) | deterioration: unsteadiness of gait and weakness of voice [8] | stabilisation of condition [8] | adhesion to the intestinal mucosa [9] | inhibition of NADH-linked oxidation [10] | toxicity ([11]; oral ingestion) | side-effects on long-term intake ([11]; taken for long periods of time, in the dosage required) |
| --- | --- | --- | --- | --- | --- | --- | --- | --- | --- | --- | --- | --- | --- | --- | --- | --- | --- | --- | --- |
| CC(=O)Oc1cccc2c1C(=O)c1c(OC(C)=O)cc(C(=O)O)cc1C2=O [diacetylrhein, 1,8-diacetoxy-3-carboxyanthraquinone] | None of the mice died | The fingers rapidly returned to normal thickness | the pain in the joints disappeared and was absent even when these were submitted to pressure | No untoward effects were noted | maintained their improved condition | An effect was noted on the fourth and fifth days | became pain free with restored torsal rotation and without early morning stiffness | most encouraging | There has almost never been a failure to respond to this treatment | sufficient progress for this to be unnecessary | unsignificant | some diarrhoea | The pain and a large part of the limb unsteadiness disappeared within seven to ten days of initiating treatment | substantially inhibited | substantially stabilised | – | – | – | – |
| O=C(O)c1cc(O)c2c(c1)C(=O)c1cccc(O)c1C2=O [Rhein, 1,8-dihydroxyanthra-quinone-3-carboxylic acid] | – | – | – | – | – | – | – | – | – | – | – | – | – | – | – | adheres strongly to the intestinal mucosa | inhibitor of NADH-linked oxidation | relatively non-toxic | without any apparent side-effects |

— US4346103A, “Treatment for arthritis and substances for use in such treatment” (priority 1976, dated 1982)
